Reference: PMC6277767, “Broad and Region-Specific Impacts of the Synthetic Cannabinoid CP 55,940 in Adolescent and Adult Female Mouse Brains” (Frontiers in Molecular Neuroscience, 2018)

System: CD1 female mouse brain lipidome
Assay: Brain-region lipid levels (HPLC/MS/MS lipidomics) 2 h after single i.p. 3 mg/kg CP 55,940 vs vehicle
Type: in vivo
Parameters: N-arachidonoyl phenylalanine level, Mean / N-stearoyl tryptophan level, Mean / N-stearoyl proline level, Mean / N-stearoyl leucine level, Mean / N-stearoyl phenylalanine level, Mean / N-stearoyl serine level, Mean / N-stearoyl methionine level, Mean: unit: moles per gram
Conditions: hippocampus, adult, 3 mg/kg CP 55,940
Method: The Bloomington Institutional Animal Care and Use Committee of Indiana University reviewed and approved the animal procedures. Female mice from the CD1 strain were utilized to match our study examining THC’s effects on the brain lipidome ([Leishman et al., 2018]). Mice were given a single i.p. injection of either 3 mg/kg CP or 1:1:18 cremophor:ethanol:saline vehicle (please refer to the section “3 mg/kg CP Is Relevant for Synthetic Cannabinoid Abuse and Has Stronger Effects on the Female Mouse Brain Lipidome During Adolescence” for a justification of dose and use of female mice). Three different age groups were given injections: PND 35 and PND 50 adolescents, and adult mice (PND 113). At least eight mice in each age group received CP and at least eight received vehicle. Matching the THC study time course ([Leishman et al., 2018]), mice were sacrificed via rapid decapitation 2 h after injection. Brains were immediately removed and flash-frozen in liquid nitrogen, and then stored at -80°C until dissections were performed. Brains were dissected on an ice-cold dissection plate into the following regions: STR, HIPP, CER, THAL, CTX, HYP, MID, and STEM. These abbreviations for these brain areas will be used exclusively when discussing the results generated by these specific dissections. Each dissected area was immediately placed in liquid nitrogen and then stored at -80°C until used for lipid extraction.
Tissue extracts were performed as previously described ([Bradshaw et al., 2006]; [Stuart et al., 2013]; [Raboune et al., 2014]; [Leishman et al., 2016a],[b], [2017], [2018]). First, samples were shock frozen in liquid nitrogen, weighed, and transferred to a centrifuge tube. The mass of the largest sample was multiplied by 50 to determine how many milliliters of HPLC-grade methanol (Fisher, Fair Lawn, NJ, United States) to add. Then, samples were spiked with 500 pmol deuterium-labeled NAGly (d8NAGly; Cayman Chemical, Ann Arbor, MI, United States). Samples were placed on ice in darkness for 2 h then individually homogenized and centrifuged at 19,000 × g for 20 min at 20°C. Supernatants were diluted with HPLC water (purified in house) to make a solution of 75% water, 25% supernatant. Lipids were partially purified on C18 solid phase extraction columns (Agilent, Palo Alto, CA, United States). A series of four elutions with 1.5 mL of 60%, 75%, 85%, and 100% methanol were collected ([Stuart et al., 2013]; [Leishman et al., 2016a],[b], [2018]).
As previously described ([Bradshaw et al., 2006]; [Tan et al., 2006]; [Smoum et al., 2010]; [Stuart et al., 2013]; [Tortoriello et al., 2013]; [Raboune et al., 2014]; [Leishman et al., 2016a],[b], [2017], [2018]), samples were analyzed using an Applied Biosystems API 3000 triple quadrupole mass spectrometer with electrospray ionization (Foster City, CA, United States). Using an Agilent XDB-C18 reversed phase analytical column and optimized mobile phase gradients, 20 μL from each elution were chromatographed. Two Shimadzu 10ADvp pumps (Columbia, MD, United States) provided the pressure for gradient elution. Mobile phase A: 20% methanol, 80% water (v/v) and 1 mM ammonium acetate (Sigma, St. Louis, MO, United States). Mobile phase B: 100% methanol, 1 mM ammonium acetate. Every method run began with 0% mobile phase B, reached 100% mobile phase B flowing at 0.2 mL/min, and gradually returned to 0% mobile phase B.
This screening library will be referred to as the lipidome when discussing data from this study. HPLC/MS/MS data were analyzed using Analyst software (Applied Biosystems) ([Bradshaw et al., 2006]; [Tan et al., 2006]; [Stuart et al., 2013]; [Tortoriello et al., 2013]; [Raboune et al., 2014]; [Leishman et al., 2016a],[b], [2017], [2018]). Chromatograms (Supplementary Figure 3) were generated by determining the retention time of analytes from the analytical column with a [M-1] or [M+1] parent peak and a fragmentation peak corresponding to the programmed values. […]

Structure (SMILES): CCCCCCC(C)(C)c1ccc([C@@H]2C[C@H](O)CC[C@H]2CCCO)c(O)c1 [CP 55,940]
- 6-ketoPGF1α level, Mean: 2.42E-11
- 11-OH-THC level, Mean: BDL
- 11-nor-9-carboxyTHC level, Mean: BDL
- Arachidonic acid level, Mean: 1.89E-09
- Cannabidiol level, Mean: BDL
- Linoleic acid level, Mean: 7.37E-10
- N- stearoyl valine level, Mean: 3.95E-14
- N-arachidonoyl GABA level, Mean: 2.86E-11
- N-arachidonoyl GABA: Direction (relative to Veh): ↓
- N-arachidonoyl GABA: Magnitude (x Veh level): 0.84 x Veh level
- N-arachidonoyl alanine level, Mean: 3.66E-12
- N-arachidonoyl alanine: Direction (relative to Veh): ↓
- N-arachidonoyl alanine: Magnitude (x Veh level): 0.76 x Veh level
- N-arachidonoyl dopamine level, Mean: BDL
- N-arachidonoyl ethanolamine level, Mean: 3.15E-11
- N-arachidonoyl glycine level, Mean: 2.03E-12
- N-arachidonoyl glycine: Direction (relative to Veh): ↓
- N-arachidonoyl glycine: Magnitude (x Veh level): 0.72 x Veh level
- N-arachidonoyl methionine level, Mean: PISSR
- N-arachidonoyl phenylalanine level, Mean: 1.12E-13
- N-arachidonoyl phenylalanine: Direction (relative to Veh): ↓
- N-arachidonoyl phenylalanine: Magnitude (x Veh level): 0.60 x Veh level
- N-arachidonoyl proline level, Mean: BDL
- N-arachidonoyl serine level, Mean: PISSR
- N-arachidonoyl taurine level, Mean: 2.3E-10
- N-arachidonoyl tryptophan level, Mean: BDL
- N-arachidonoyl tyrosine level, Mean: PISSR
- N-docosahexaenoyl GABA level, Mean: 7.15E-12
- N-docosahexaenoyl GABA: Direction (relative to Veh): ↓
- N-docosahexaenoyl GABA: Magnitude (x Veh level): 0.84 x Veh level
- N-docosahexaenoyl alanine level, Mean: PISSR
- N-docosahexaenoyl ethanolamine level, Mean: 2.18E-11
- N-docosahexaenoyl glycine level, Mean: 1.21E-13
- N-docosahexaenoyl leucine level, Mean: PISSR
- N-docosahexaenoyl methionine level, Mean: BDL
- N-docosahexaenoyl phenylalanine level, Mean: PISSR
- N-docosahexaenoyl proline level, Mean: BDL
- N-docosahexaenoyl serine level, Mean: PISSR
- N-docosahexaenoyl tryptophan level, Mean: BDL
- N-docosahexaenoyl tyrosine level, Mean: PISSR
- N-docosahexaenoyl valine level, Mean: PISSR
- N-linoleoyl GABA level, Mean: PISSR
- N-linoleoyl alanine level, Mean: 3.37E-13
- N-linoleoyl ethanolamine level, Mean: 2.58E-11
- N-linoleoyl glycine level, Mean: 1.16E-13
- N-linoleoyl leucine level, Mean: PISSR
- N-linoleoyl methionine level, Mean: BDL
- N-linoleoyl phenylalanine level, Mean: PISSR
- N-linoleoyl proline level, Mean: BDL
- N-linoleoyl serine level, Mean: 7.17E-11
- N-linoleoyl tryptophan level, Mean: BDL
- N-linoleoyl tyrosine level, Mean: PISSR
- N-linoleoyl valine level, Mean: PISSR
- N-nervonoyl valine level, Mean: BDL
- N-oleoyl GABA level, Mean: 1.55E-11
- N-oleoyl GABA: Direction (relative to Veh): ↓
- N-oleoyl GABA: Magnitude (x Veh level): 0.88 x Veh level
- N-oleoyl alanine level, Mean: 3.73E-12
- N-oleoyl dopamine level, Mean: BDL
- N-oleoyl ethanolamine level, Mean: 1.06E-10
- N-oleoyl glycine level, Mean: 5.21E-13
- N-oleoyl leucine level, Mean: 1.44E-12
- N-oleoyl methionine level, Mean: PISSR
- N-oleoyl phenylalanine level, Mean: 3.98E-13
- N-oleoyl phenylalanine: Direction (relative to Veh): ↓
- N-oleoyl phenylalanine: Magnitude (x Veh level): 0.70 x Veh level
- N-oleoyl proline level, Mean: BDL
- N-oleoyl serine level, Mean: 3.49E-10
- N-oleoyl tryptophan level, Mean: BDL
- N-oleoyl tyrosine level, Mean: 4.1E-13
- N-oleoyl valine level, Mean: PISSR
- N-palmitoyl GABA level, Mean: 2.14E-11
- N-palmitoyl alanine level, Mean: 3.64E-12
- N-palmitoyl ethanolamine level, Mean: 4.41E-11
- N-palmitoyl glycine level, Mean: 1.22E-12
- N-palmitoyl leucine level, Mean: 2.6E-12
- N-palmitoyl methionine level, Mean: 1.73E-12
- N-palmitoyl phenylalanine level, Mean: 4.39E-13
- N-palmitoyl proline level, Mean: BDL
- N-palmitoyl serine level, Mean: 1.33E-11
- N-palmitoyl tryptophan level, Mean: BDL
- N-palmitoyl tyrosine level, Mean: 9.98E-13
- N-palmitoyl valine level, Mean: 1.27E-13
- N-stearoyl GABA level, Mean: 1.57E-11
- N-stearoyl alanine level, Mean: 2.38E-12
- N-stearoyl ethanolamine level, Mean: 1.7E-11
- N-stearoyl glycine level, Mean: 2.12E-12
- N-stearoyl leucine level, Mean: 2.18E-12
- N-stearoyl phenylalanine level, Mean: 3.31E-13
- N-stearoyl proline level, Mean: BDL
- N-stearoyl serine level, Mean: 2.78E-11
- N-stearoyl serine: Direction (relative to Veh): ↓
- N-stearoyl serine: Magnitude (x Veh level): 0.85 x Veh level
- N-stearoyl tryptophan level, Mean: BDL
- N-stearoyl tyrosine level, Mean: 1.97E-13
- Oleic acid level, Mean: 1.43E-09
- PGE2: Direction (relative to Veh): ↑
- PGE2: Magnitude (x Veh level): 1.18 x Veh level
- PGE2 level, Mean: 3.37E-10
- PGF2α: Direction (relative to Veh): ↑
- PGF2α: Magnitude (x Veh level): 1.30 x Veh level
- PhosphoLEA level, Mean: 1.8E-11
